Experimental data from patent publication US6689748B1, “Method of treating mast cell activation-induced diseases with a proteoglycan” (priority 1998, dated 2004).

Assays:
Assay type in all cases: cell-based
[1] = test system: mast cells purified from peritoneal cavities of male Sprague/Dawley rats; assay: Histamine secretion from purified rat peritoneal mast cells after saccharide preincubation and wash, stimulated with C48/80 or SP; conditions: preincubated with 10^−5 M saccharide 60 min 37° C., washed twice; for Mast Cell Secretion (% inhibition), C48/80: stimulated with 10^−5 M C48/80, n = 4; for Mast Cell Secretion (% inhibition), SP: stimulated with 10^−5 M Substance P, n = 3
Method: We studied the effect of chondroitin sulfate on histamine secretion from mast cells purified from peritoneal cavities of male Sprague/Dawley rats (300g, Charles River) over 25% Metrizamide (Accurate Scientific). Mast cells were preincubated with 10^−5 M saccharide for 60 min at 37° C. followed by two washes and resuspension in saccharide-free medium prior to stimulation with 10^−5 M of the mast cell secretagogue, compound 48/80 (C48/80) or the neuropeptide Substance P (SP). As the cells were washed free of saccharide, any inhibitory effect was not due to any interference with binding of C48/80 or SP to the cell surface. Consequently, this effect is distinct from reports showing that certain monosaccharide-containing lectins inhibit C48/80-induced mast cell secretion (Matsuda, K., et al., Jpn. J. Pharmacol. 64:1, 1994).

[2] = test system: mast cells purified from 300g male Sprague/Dawley rats; assay: Histamine secretion from purified rat mast cells, 15 min preincubation, washed, C48/80 stimulation; conditions: for Mast Cell Secretion, % of Total: 15 min preincubation, washed, then C48/80 0.1 μg/ml 10 min
Method: Here, we investigated the effect of the polysaccharide chondroitin sulfate and of the flavonoid quercetin on histamine secretion from mast cells purified from 300g male Sprague/Dawley rats. Mast cells were preincubated with the test compound for 15 min at 37° C. and washed twice prior to stimulation with 0.1 μg/ml of the mast cell secretagogue compound 48/80 (C48/80) for 10 min. […] A combination of these naturally occurring products available OTC could be useful for the prevention of stress-induced gastrointestinal syndromes, such as irritable bowel syndrome or inflammatory bowel disease.

[3] = test system: human leukemic mast cells; assay: Proliferation of cultured human leukemic mast cells; conditions: for Inhibition (%) of human leukemic mast cell proliferation: n = 5
Description: Cell viability was about 90% or better.

Compound: N[C@H]1C(O)O[C@H](CO)[C@@H](O)[C@@H]1O.O=S(=O)(O)O (stereo partly drawn) [D-Glucosamine sulfate]
- Mast Cell Secretion (% inhibition), C48/80 [1]: 33.7 ± 1.5%
- Mast Cell Secretion (% inhibition), SP [1]: 27.5 ± 18.1%

Compound: CC(=O)N[C@H]1C(O)O[C@H](CO)[C@@H](O)[C@@H]1O (stereo partly drawn) [N-acetyl-glucosamine]
- Mast Cell Secretion (% inhibition), C48/80 [1]: 37.4 ± 10.5%
- Mast Cell Secretion (% inhibition), SP [1]: 30.8 ± 6.5%

Compound: O=c1c(O)c(-c2ccc(O)c(O)c2)oc2cc(O)cc(O)c12 [Quercetin, quercetin]
- Mast Cell Secretion, % of Total ([2]; test compound 10^−6M): 30.5 ± 0.5%

Compound: chondroitin sulfate
- Mast Cell Secretion (% inhibition), C48/80 [1]: 75.4 ± 3.6%
- Mast Cell Secretion (% inhibition), SP [1]: 38.1 ± 12.2%
- maximal inhibition of mast cell activation ([2]; 10^−4 M, C48/80 stimulation): 83%
- Mast Cell Secretion, % of Total ([2]; test compound 10^−4M): 5.3 ± 1.3%
- Mast Cell Secretion, % of Total ([2]; test compound 10^−5M): 15.3 ± 2.7%
- Mast Cell Secretion, % of Total ([2]; test compound 10^−6M): 31.0 ± 2.9%
- Inhibition (%) of human leukemic mast cell proliferation ([3]; Day 3, 10^−4M): 57.8 ± 13.3%
- Inhibition (%) of human leukemic mast cell proliferation ([3]; Day 3, 10^−5M): 44.3 ± 12.7%
- Inhibition (%) of human leukemic mast cell proliferation ([3]; Day 3, 10^−6M): 27.2 ± 12.1%
- Inhibition (%) of human leukemic mast cell proliferation ([3]; Day 3, 10^−7M): 12.6 ± 9.6%
- Inhibition (%) of human leukemic mast cell proliferation ([3]; Day 4, 10^−4M): 53.1 ± 8.9%
- Inhibition (%) of human leukemic mast cell proliferation ([3]; Day 4, 10^−5M): 38.9 ± 9.1%
- Inhibition (%) of human leukemic mast cell proliferation ([3]; Day 4, 10^−6M): 25.3 ± 9.6%
- Inhibition (%) of human leukemic mast cell proliferation ([3]; Day 4, 10^−7M): 14.9 ± 6.9%
- Inhibition (%) of human leukemic mast cell proliferation ([3]; Day 5, 10^−4M): 52.4 ± 13.9%
- Inhibition (%) of human leukemic mast cell proliferation ([3]; Day 5, 10^−5M): 31.2 ± 15.8%
- Inhibition (%) of human leukemic mast cell proliferation ([3]; Day 5, 10^−6M): 20.7 ± 15.2%
- Inhibition (%) of human leukemic mast cell proliferation ([3]; Day 5, 10^−7M): 14.7 ± 6.8%
- Cell viability ([3]; human leukemic mast cells cultured in the presence of chondroitin sulfate): ≥ 90%
